{
  "source": "patent US7037652B2",
  "about": "“Expression analysis of KIAA nucleic acids and polypeptides useful in the diagnosis and treatment of prostate cancer” (Wyeth, priority 2000, dated 2006)",
  "key": {"LNCaP cells": {"test_system": "LNCaP cells", "details": "MTT assay, FIG. 1A", "protocol": "Human prostatic cancer cell lines LNCaP, DU-145, PC-3, and Tsu-prl were obtained from ATCC. LNCaP cancer cells were maintained in humidified atmosphere of 5% CO2 in air in RPMI 1640 medium supplemented with 10% fetal calf serum (Life Technologies, Inc, Rockville, Md.), 3 mM L-glutamine, 100 μg/ml streptomycin and 100 units/ml penicillin. Other lines were maintained in DMEM containing 3 mM L-glutamine, 100 μg/ml streptomycin, 100 units/ml penicillin, and 10% FCS in humidified atmosphere of 5% CO2. To examine the effects of steroids, cells were cultured in RPMI 1640 medium containing 5% FCS treated with dextran coated charcoal (Hyclone, Logan, Utah) for 24 hs before treatment. Cells were grown in the absence or presence of 10 nM DHT for 0, 2, 4, 6, 12, 24, 48, and 72 hs. They were collected and frozen at each time point. Two hundred μl of medium were collected from each flask for PSA assay.\nTo verify the effect of DHT on the growth of LNCaP cells, cells at 3,000 cells/well were plated in 96-well plates for 24 hs before treatment with DHT. After 72 hs, MTT was added to each well and incubated at 37° C. for four hs. At the end of incubation, the supernatant was removed and 100 μl DMSO was added to each well to dissolve […]. Plates were subsequently read in a plate reader at […]."}, "[1]": {"test_system": "PSA production of LNCaP cells"}, "[2]": {"test_system": "PSA expression in LNCaP cells", "details": "10 nM DHT, FIG. 3A"}, "[3]": {"test_system": "KIAA 18 expression in LNCaP cells", "details": "10 nM DHT"}, "[4]": {"test_system": "KIAA 96 expression in LNCaP cells", "details": "10 nM DHT, 24 hours, FIG. 3C"}, "[5]": {"test_system": "Prostatic Acid Phosphatase (PAcP) in LNCaP", "details": "cited from earlier work"}},
  "data": [
    {"compound": "C[C@]12CCC(=O)C[C@@H]1CC[C@@H]1[C@@H]2CC[C@]2(C)[C@@H](O)CC[C@@H]12", "note": "[DHT, dihydrotestosterone]", "values": [
      {"measurement": "growth of LNCaP cells", "setting": "LNCaP cells", "result": "stimulated"},
      {"measurement": "PSA production", "setting": "[1]", "result": "increased in a dose-dependent manner"},
      {"measurement": "time at which PSA signal was first detected", "setting": "[1]", "result": 12, "unit": "h"},
      {"measurement": "time of maximal PSA level", "setting": "[1]", "result": "about 48 hs"},
      {"measurement": "PSA expression increase relative to control", "setting": "[2]; 12 hours", "result": 3, "unit": "fold"},
      {"measurement": "PSA expression induction relative to control", "setting": "[2]; 72 hours", "result": "approximately 4 fold"},
      {"measurement": "time at which KIAA 18 induction began", "setting": "[3]", "result": 12, "unit": "h"},
      {"measurement": "KIAA 18 over-expression relative to control", "setting": "[3]; 24 hours, FIG. 3B", "result": 2, "unit": "fold"},
      {"measurement": "KIAA 18 induction relative to baseline", "setting": "[3]; 72 hours", "result": 3, "unit": "fold"},
      {"measurement": "KIAA 96 expression down relative to baseline", "setting": "[4]", "result": 6, "unit": "fold"},
      {"measurement": "PAcP expression", "setting": "[5]", "result": "suppressed"}
    ]}
  ]
}
